# Measured values: article PMC9917201, “Enhanced Antibacterial Activity of Substituted Derivatives of NCR169C Peptide” (International Journal of Molecular Sciences, 2023)
# Like-named read-outs stand apart in the source and are kept apart here. Non-standard residues stand in square brackets, D forms with d. Residues, ends and D or L forms follow the SMILES beside them. ξ: configuration not given here. ξTrp(6-F) = NC(Cc1c[nH]c2cc(F)ccc12)C(=O)O
# How the values were obtained:
# E. coli (ATCC 25922) = format: cell-based, Escherichia coli; settings: ATCC 25922, 3 h, pH 7.4
# Source text: (§1) The bacterial strains for the antimicrobial assay were obtained from the ATCC (American Type Culture Collection, Manassas, VA, USA) and NCTC (National Collection of Type Cultures, Salisbury, UK). Gram-negative strains were Pseudomonas aeruginosa (ATCC 27853), Escherichia coli (ATCC 8739, ATCC 35218, and ATCC 25922), Salmonella enterica (ATCC 13076), Klebsiella pneumoniae (NCTC 13440), Acinetobacter baumannii (ATCC 17978) and the Gram-positive strains were Enterococcus faecalis (ATCC 29212), Listeria monocytogenes (ATCC 19111), and Staphylococcus aureus (HNCMO112011 and ATCC 25923).
# (§2) Determination of antibacterial activity for the peptides was carried out by utilizing a minimum bactericidal concentration (MBC) bioassay. Synthesized peptides were dissolved in sterile water and used from 25 to 0.125 μM in 2-fold dilution series and incubated with ~10^7 log phase bacteria in Potassium-Phosphate Buffer (PPB, pH: 7.4) for three hours as described earlier. After that, 5 μl of each sample was placed on LB agar and the growth of bacteria was monitored after overnight incubation at 37 °C. The lowest concentration of the antimicrobial agents that completely eliminated viable bacteria was considered the minimal bactericidal concentration (MBC).
# E. coli (ATCC 35218) = format: cell-based, Escherichia coli; settings: ATCC 35218, 3 h, pH 7.4
# Source text: as §1, §2
# S. aureus (ATCC 25923) = format: cell-based, Staphylococcus aureus; settings: ATCC 25923, 3 h, pH 7.4
# Source text: as §1, §2
# [1] = test system: Acinetobacter baumannii (ATCC 17978); format: cell-based; settings: ATCC 17978, 3 h, pH 7.4
# Method in brief: (§3)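 Peptides in 2-fold dilutions from 25 to […] were incubated 3 h with ~10^7 log-phase bacteria in potassium-phosphate buffer, pH 7.4. Samples were then spotted on LB agar and growth read after overnight incubation at 37 °C. MBC was the lowest concentration that completely eliminated viable bacteria.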
# [2] = test system: Enterococcus faecalis (ATCC 29212); format: cell-based
# Method in brief: as §3
# [3] = test system: Escherichia coli (ATCC 8739); format: cell-based
# Method in brief: as §3
# [4] = test system: Klebsiella pneumoniae (NCTC 13440); format: cell-based; settings: NCTC 13440, 3 h, pH 7.4
# Method in brief: as §3
# [5] = test system: Listeria monocytogenes (ATCC 19111); format: cell-based; settings: ATCC 19111, 3 h, pH 7.4
# Method in brief: as §3
# [6] = test system: Pseudomonas aeruginosa (ATCC 27853); format: cell-based; settings: ATCC 27853, 3 h, pH 7.4
# Method in brief: as §3
# [7] = test system: Salmonella enterica (ATCC 13076); format: cell-based
# Method in brief: as §3
# [8] = test system: Staphylococcus aureus (HNCMO112011); format: cell-based
# Method in brief: as §3
# [9] = test system: tested bacteria (ESKAPE pathogens, Listeria monocytogenes, Salmonella enterica); format: cell-based; settings: 3 h, pH 7.4
# Method in brief: as §3
# Candida species = settings: cited from earlier work
# Source text: NCR169, a cationic peptide (net charge at pH7 is 1.91) consisting of 38 amino acids with four cysteine residues, is crucial for bacteroid differentiation, and its absence results in no nitrogen fixation but premature nodule senescence. Two NMR structures of NCR169 produced in Escherichia coli resulting from different disulfide bond patterns have been determined by utilizing the ^1H-^15N heteronuclear single-quantum coherence (HSQC) NMR technique.
# [10] = test system: tested bacteria (ESKAPE pathogens, Listeria monocytogenes, Salmonella enterica); design: method as in PMID 32153547; settings: same bacterial species; cited from earlier work
# [11] = Enterococcus faecalis ATCC 29212, ~10^7 log phase bacteria, 3 h in potassium-phosphate buffer (PPB) pH 7.4, peptide 25 to 0.125 μM 2-fold series, 5 μl on LB agar, overnight 37 °C
smiles,measurement,setting,value
"CC[C@H](C)[C@H](NC(=O)[C@H](CCCCN)NC(=O)[C@H](Cc1ccccc1)NC(=O)[C@H](CC(C)C)NC(=O)[C@@H]1CCCN1C(=O)[C@H](CCCCN)NC(=O)[C@H](CCCCN)NC(=O)[C@H](CO)NC(=O)[C@@H](N)CCCCN)C(=O)NC(Cc1c[nH]c2cc(F)ccc12)C(=O)N[C@@H](CCCCN)C(=O)N[C@@H](CO)C(=O)N[C@H](C(=O)N[C@@H](CCC(=O)O)C(=O)N[C@@H](CC(N)=O)C(=O)N[C@H](C(=O)N[C@@H](CO)C(=O)N[C@H](C(=O)N[C@@H](CC(C)C)C(=O)N[C@@H](Cc1c[nH]c2ccccc12)C(=O)N[C@@H](Cc1ccc(O)cc1)C(=O)N[C@@H](CCCCN)C(N)=O)C(C)C)C(C)C)C(C)C (stereo partly drawn) [NCR169C17–38C12,17/S-10W^6-F II] (H-KSKKPLFKI[ξTrp(6-F)]KSVENVSVLWYK-NH2; N-terminus assumed)",MBC E.c. ATTC 25922,E. coli (ATCC 25922),0.8 µM
same,MBC E.c. ATTC 35218,E. coli (ATCC 35218),0.8 µM
same,MBC S.a. ATTC 25923,S. aureus (ATCC 25923),1.6 µM
same,Minimal bactericidal concentration (MBC) A. b.,[1],0.8 µM
same,Minimal bactericidal concentration (MBC) E. f.,"[2]; ATCC 29212, 3 h, pH 7.4",0.8 µM
same,Minimal bactericidal concentration (MBC) E. c.,"[3]; ATCC 8739, 3 h, pH 7.4",0.8 µM
same,Minimal bactericidal concentration (MBC) K. p.,[4],1.6 µM
same,Minimal bactericidal concentration (MBC) L. m.,[5],1.6 µM
same,Minimal bactericidal concentration (MBC) P. a.,[6],1.6 µM
same,Minimal bactericidal concentration (MBC) S. e.,"[7]; ATCC 13076, 3 h, pH 7.4",6.3 µM
same,Minimal bactericidal concentration (MBC) S. a.,"[8]; HNCMO112011, 3 h, pH 7.4",0.8 µM
same,MBC against most or all of the tested bacteria,[9],0.8 to 1.6 µM
"CC[C@H](C)[C@H](NC(=O)[C@H](CCCCN)NC(=O)[C@H](Cc1ccccc1)NC(=O)[C@H](CC(C)C)NC(=O)[C@@H]1CCCN1C(=O)[C@H](CCCCN)NC(=O)[C@H](CCCCN)NC(=O)[C@H](CO)NC(=O)[C@@H](N)CCCCN)C(=O)NC(Cc1c[nH]c2cc(F)ccc12)C(=O)N[C@@H](CCCCN)C(=O)N[C@@H](CO)C(=O)N[C@H](C(=O)N[C@@H](CCC(=O)O)C(=O)N[C@@H](CC(N)=O)C(=O)N[C@H](C(=O)N[C@@H](CO)C(=O)N[C@H](C(=O)N[C@@H](CC(C)C)C(=O)N[C@@H](Cc1c[nH]c2ccccc12)C(=O)N[C@@H](Cc1ccc(O)cc1)C(=O)N[C@@H](CCCCN)C(N)=O)C(C)C)C(C)C)C(C)C (stereo partly drawn) [NCR169C17–38C12,17/S-10W^6-F I] (H-KSKKPLFKI[ξTrp(6-F)]KSVENVSVLWYK-NH2; N-terminus assumed)",MBC E.c. ATTC 25922,E. coli (ATCC 25922),0.8 µM
same,MBC E.c. ATTC 35218,E. coli (ATCC 35218),0.8 µM
same,MBC S.a. ATTC 25923,S. aureus (ATCC 25923),1.6 µM
same,Minimal bactericidal concentration (MBC) A. b.,[1],1.6 µM
same,Minimal bactericidal concentration (MBC) E. f.,"[2]; ATCC 29212, 3 h, pH 7.4",1.6 µM
same,Minimal bactericidal concentration (MBC) E. c.,"[3]; ATCC 8739, 3 h, pH 7.4",0.8 µM
same,Minimal bactericidal concentration (MBC) K. p.,[4],1.6 µM
same,Minimal bactericidal concentration (MBC) L. m.,[5],1.6 µM
same,Minimal bactericidal concentration (MBC) P. a.,[6],0.8 µM
same,Minimal bactericidal concentration (MBC) S. e.,"[7]; ATCC 13076, 3 h, pH 7.4",1.6 µM
same,Minimal bactericidal concentration (MBC) S. a.,"[8]; HNCMO112011, 3 h, pH 7.4",0.8 µM
same,MBC against most or all of the tested bacteria,[9],0.8 to 1.6 µM
"CC[C@H](C)[C@H](NC(=O)[C@H](CCCCN)NC(=O)[C@H](Cc1ccccc1)NC(=O)[C@H](CC(C)C)NC(=O)[C@@H]1CCCN1C(=O)[C@H](CCCCN)NC(=O)[C@H](CCCCN)NC(=O)[C@H](CO)NC(=O)[C@@H](N)CCCCN)C(=O)N[C@@H](C)C(=O)N[C@@H](CCCCN)C(=O)N[C@@H](CS)C(=O)N[C@H](C(=O)N[C@@H](CCC(=O)O)C(=O)N[C@@H](CC(N)=O)C(=O)N[C@H](C(=O)N[C@@H](CS)C(=O)N[C@H](C(=O)N[C@@H](CC(C)C)C(=O)N[C@@H](C)C(=O)N[C@@H](Cc1ccc(O)cc1)C(=O)N[C@@H](CCCCN)C(N)=O)C(C)C)C(C)C)C(C)C [NCR169C17–38W10,20/A] (H-KSKKPLFKIAKCVENVCVLAYK-NH2; N-terminus assumed)",Minimal bactericidal concentration (MBC) A. b.,[1],3.1 µM
same,Minimal bactericidal concentration (MBC) E. f.,[2]; [11],- (-: inactive up to 25 μM)
same,Minimal bactericidal concentration (MBC) E. c.,"[3]; ATCC 8739, 3 h, pH 7.4",3.1 µM
same,Minimal bactericidal concentration (MBC) K. p.,[4],12.5 µM
same,Minimal bactericidal concentration (MBC) L. m.,[5],25 µM
same,Minimal bactericidal concentration (MBC) P. a.,[6],3.1 µM
same,Minimal bactericidal concentration (MBC) S. e.,"[7]; Salmonella enterica ATCC 13076, ~10^7 log phase bacteria, 3 h in PPB pH 7.4, peptide 25 to 0.125 μM 2-fold series, plated on LB agar, overnight 37 °C",- (-: inactive up to 25 μM)
same,Minimal bactericidal concentration (MBC) S. a.,"[8]; Staphylococcus aureus HNCMO112011, ~10^7 log phase bacteria, 3 h in PPB pH 7.4, peptide 25 to 0.125 μM 2-fold series, plated on LB agar, overnight 37 °C",- (-: inactive up to 25 μM)
same,antifungal activity against different Candida species,Candida species,possess antifungal activity
CC[C@H](C)[C@H](NC(=O)[C@H](CCCCN)NC(=O)[C@H](Cc1ccccc1)NC(=O)[C@H](CC(C)C)NC(=O)[C@@H]1CCCN1C(=O)[C@H](CCCCN)NC(=O)[C@H](CCCCN)NC(=O)[C@H](CO)NC(=O)[C@@H](N)CCCCN)C(=O)N[C@@H](Cc1c[nH]c2ccccc12)C(=O)N[C@@H](CCCCN)C(=O)N[C@@H](CS)C(=O)N[C@H](C(=O)N[C@@H](CCC(=O)O)C(=O)N[C@@H](CC(N)=O)C(=O)N[C@H](C(=O)N[C@@H](CS)C(=O)N[C@H](C(=O)N[C@@H](CC(C)C)C(=O)N[C@@H](Cc1c[nH]c2ccccc12)C(=O)N[C@@H](Cc1ccc(O)cc1)C(=O)N[C@@H](CCCCN)C(N)=O)C(C)C)C(C)C)C(C)C [NCR169C17–38] (H-KSKKPLFKIWKCVENVCVLWYK-NH2; N-terminus assumed),MBC E.c. ATTC 25922,E. coli (ATCC 25922),1.6 µM
same,MBC E.c. ATTC 35218,E. coli (ATCC 35218),1.6 µM
same,MBC S.a. ATTC 25923,S. aureus (ATCC 25923),3.1 µM
same,Minimal bactericidal concentration (MBC) A. b.,[1],3.1 µM
same,Minimal bactericidal concentration (MBC) E. f.,[2]; [11],6.3 µM
same,Minimal bactericidal concentration (MBC) E. c.,"[3]; Escherichia coli ATCC 8739, ~10^7 log phase bacteria, 3 h in PPB pH 7.4, peptide 25 to 0.125 μM 2-fold series, plated on LB agar, overnight 37 °C",1.6 µM
same,Minimal bactericidal concentration (MBC) K. p.,[4],3.1 µM
same,Minimal bactericidal concentration (MBC) L. m.,[5],3.1 µM
same,Minimal bactericidal concentration (MBC) P. a.,[6],3.1 µM
same,Minimal bactericidal concentration (MBC) S. e.,"[7]; ATCC 13076, 3 h, pH 7.4",3.1 µM
same,Minimal bactericidal concentration (MBC) S. a.,"[8]; HNCMO112011, 3 h, pH 7.4",3.1 µM
same,MBC against most or all of the tested bacteria,[9],3.1 µM
same,antifungal activity against different Candida species,Candida species,possess antifungal activity
CC1(C)S[C@@H]2[C@H](NC(=O)C(C(=O)O)c3ccccc3)C(=O)N2[C@H]1C(=O)O (stereo partly drawn) [carbenicillin],MBCs compared with the NCR169 peptide derivatives,[10],2–4 fold
C[C@H]1COc2c(N3CCN(C)CC3)c(F)cc3c(=O)c(C(=O)O)cn1c23 [levofloxacin],MBCs compared with the NCR169 peptide derivatives,[10],either similar or 200-fold higher
